Species: Rattus norvegicus
Assay: DrugMatrix - Regimen: Daily Repeat
Type: toxicity, organism-based, Sprague-Dawley
Design: regimen Daily Repeat, gender Male, age 6-8 weeks
Details: in vivo, iv, vehicle 100 % SALINE; for ABSOLUTE BASOPHIL / ABSOLUTE EOSINOPHIL / ABSOLUTE LYMPHOCYTE / ABSOLUTE MONOCYTE / ABSOLUTE SEGMENTED NEUTROPHIL / BASOPHIL / EOSINOPHIL / ERYTHROCYTE COUNT / HEMATOCRIT / HEMOGLOBIN / LEUKOCYTE COUNT / LYMPHOCYTE / MEAN CORPUSCULAR HEMOGLOBIN / MEAN CORPUSCULAR HEMOGLOBIN CONCENTRATION / MEAN CORPUSCULAR VOLUME / MONOCYTE / NEUTROPHIL / NUCLEATED RED BLOOD CELLS / PLATELET COUNT: tissue Blood; for ALANINE AMINOTRANSFERASE / ALBUMIN / ALKALINE PHOSPHATASE / ASPARTATE AMINOTRANSFERASE / BLOOD UREA NITROGEN / CARBON DIOXIDE / CHLORIDE / CHOLESTEROL / CREATINE PHOSPHOKINASE / CREATININE / GLUCOSE / LACTATE DEHYDROGENASE / LIPASE / PHOSPHORUS / POTASSIUM / SODIUM / TOTAL BILIRUBIN / TOTAL PROTEIN / URIC ACID: tissue Plasma
[1] = 27 mg/kg, 72 h, dose level High, time 3 day
[2] = 27 mg/kg, 120 h, dose level High, time 5 day
[3] = […], 72 h, dose 2.7 mg/Kg, dose level Low, time 3 day
[4] = […], 120 h, dose 2.7 mg/Kg, dose level Low, time 5 day

## COC(=O)CCc1ccc(OCC(O)CNC(C)C)cc1 (configuration not stated) [ESMOLOL]
[1]
  ABSOLUTE BASOPHIL: 0 CELLS/uL
  ABSOLUTE EOSINOPHIL: 31.33 CELLS/uL
  ABSOLUTE LYMPHOCYTE: 10926.67 CELLS/uL
  ABSOLUTE MONOCYTE: 68.67 CELLS/uL
  ABSOLUTE SEGMENTED NEUTROPHIL: 673.33 CELLS/uL
  BASOPHIL: 0%
  EOSINOPHIL: 0.33%
  ERYTHROCYTE COUNT: 5.92 x10E6/uL
  HEMATOCRIT: 37.53%
  HEMOGLOBIN: 14.47 G/DL
  LEUKOCYTE COUNT: 11.7 x10E3/uL
  LYMPHOCYTE: 92.67%
  MEAN CORPUSCULAR HEMOGLOBIN: 24.37 pg
  MEAN CORPUSCULAR HEMOGLOBIN CONCENTRATION: 38.63 G/DL
  MEAN CORPUSCULAR VOLUME: 63.03 fL
  MONOCYTE: 0.67%
  NEUTROPHIL: 6.33%
  NUCLEATED RED BLOOD CELLS: 0 /100WBC
  PLATELET COUNT: 1320 x10E3/uL
  ALANINE AMINOTRANSFERASE: 71.33 u/L
  ALBUMIN: 4.1 G/DL
  ALKALINE PHOSPHATASE: 456.33 u/L
  ASPARTATE AMINOTRANSFERASE: 161 u/L
  BLOOD UREA NITROGEN: 16.67 mg/dL
  CARBON DIOXIDE: 28.67 mmol/L
  CHLORIDE: 100.33 MEQ/L
  CHOLESTEROL: 75.67 mg/dL
  CREATINE PHOSPHOKINASE: 1751 u/L
  CREATININE: 0.23 mg/dL
  GLUCOSE: 225 mg/dL
  LACTATE DEHYDROGENASE: 862 u/L
  LIPASE: 12.33 u/L
  PHOSPHORUS: 14.17 mg/dL
  POTASSIUM: 8.56 MEQ/L
  SODIUM: 142.57 MEQ/L
  TOTAL BILIRUBIN: 0.4 mg/dL
  TOTAL PROTEIN: 5.8 G/DL
  URIC ACID: 4.13 mg/dL
[2]
  ABSOLUTE BASOPHIL: 0 CELLS/uL
  ABSOLUTE EOSINOPHIL: 0 CELLS/uL
  ABSOLUTE LYMPHOCYTE: 16580.67 CELLS/uL
  ABSOLUTE MONOCYTE: 300 CELLS/uL
  ABSOLUTE SEGMENTED NEUTROPHIL: 1652.67 CELLS/uL
  BASOPHIL: 0%
  EOSINOPHIL: 0%
  ERYTHROCYTE COUNT: 5.69 x10E6/uL
  HEMATOCRIT: 36.33%
  HEMOGLOBIN: 14.23 G/DL
  LEUKOCYTE COUNT: 18.53 x10E3/uL
  LYMPHOCYTE: 89.33%
  MEAN CORPUSCULAR HEMOGLOBIN: 25 pg
  MEAN CORPUSCULAR HEMOGLOBIN CONCENTRATION: 39.2 G/DL
  MEAN CORPUSCULAR VOLUME: 63.8 fL
  MONOCYTE: 1.67%
  NEUTROPHIL: 9%
  NUCLEATED RED BLOOD CELLS: 0 /100WBC
  PLATELET COUNT: 1133.67 x10E3/uL
  ALANINE AMINOTRANSFERASE: 63.33 u/L
  ALBUMIN: 4.27 G/DL
  ALKALINE PHOSPHATASE: 363.67 u/L
  ASPARTATE AMINOTRANSFERASE: 126 u/L
  BLOOD UREA NITROGEN: 15.33 mg/dL
  CARBON DIOXIDE: 27.33 mmol/L
  CHLORIDE: 99.67 MEQ/L
  CHOLESTEROL: 70.33 mg/dL
  CREATINE PHOSPHOKINASE: 284 u/L
  CREATININE: 0.22 mg/dL
  GLUCOSE: 147.33 mg/dL
  LACTATE DEHYDROGENASE: 238.67 u/L
  LIPASE: 9.33 u/L
  PHOSPHORUS: 11 mg/dL
  POTASSIUM: 6.94 MEQ/L
  SODIUM: 142.83 MEQ/L
  TOTAL BILIRUBIN: 0.17 mg/dL
  TOTAL PROTEIN: 6.3 G/DL
  URIC ACID: 1.47 mg/dL
[3]
  ABSOLUTE BASOPHIL: 0 CELLS/uL
  ABSOLUTE EOSINOPHIL: 0 CELLS/uL
  ABSOLUTE LYMPHOCYTE: 13243.33 CELLS/uL
  ABSOLUTE MONOCYTE: 97.67 CELLS/uL
  ABSOLUTE SEGMENTED NEUTROPHIL: 1325.67 CELLS/uL
  BASOPHIL: 0%
  EOSINOPHIL: 0%
  ERYTHROCYTE COUNT: 5.56 x10E6/uL
  HEMATOCRIT: 35.9%
  HEMOGLOBIN: 14.23 G/DL
  LEUKOCYTE COUNT: 14.67 x10E3/uL
  LYMPHOCYTE: 90.33%
  MEAN CORPUSCULAR HEMOGLOBIN: 25.77 pg
  MEAN CORPUSCULAR HEMOGLOBIN CONCENTRATION: 39.73 G/DL
  MEAN CORPUSCULAR VOLUME: 64.73 fL
  MONOCYTE: 0.67%
  NEUTROPHIL: 9%
  NUCLEATED RED BLOOD CELLS: 0 /100WBC
  PLATELET COUNT: 1093.67 x10E3/uL
  ALANINE AMINOTRANSFERASE: 50 u/L
  ALBUMIN: 4.43 G/DL
  ALKALINE PHOSPHATASE: 440 u/L
  ASPARTATE AMINOTRANSFERASE: 82 u/L
  BLOOD UREA NITROGEN: 17.33 mg/dL
  CARBON DIOXIDE: 28.67 mmol/L
  CHLORIDE: 100.33 MEQ/L
  CHOLESTEROL: 69.33 mg/dL
  CREATINE PHOSPHOKINASE: 423.67 u/L
  CREATININE: 0.22 mg/dL
  GLUCOSE: 193 mg/dL
  LACTATE DEHYDROGENASE: 155 u/L
  LIPASE: 9 u/L
  PHOSPHORUS: 12.67 mg/dL
  POTASSIUM: 7.24 MEQ/L
  SODIUM: 143.23 MEQ/L
  TOTAL BILIRUBIN: 0.23 mg/dL
  TOTAL PROTEIN: 5.97 G/DL
  URIC ACID: 2.6 mg/dL
[4]
  ABSOLUTE BASOPHIL: 0 CELLS/uL
  ABSOLUTE EOSINOPHIL: 0 CELLS/uL
  ABSOLUTE LYMPHOCYTE: 9825 CELLS/uL
  ABSOLUTE MONOCYTE: 143 CELLS/uL
  ABSOLUTE SEGMENTED NEUTROPHIL: 698.67 CELLS/uL
  BASOPHIL: 0%
  EOSINOPHIL: 0%
  ERYTHROCYTE COUNT: 6.36 x10E6/uL
  HEMATOCRIT: 40.2%
  HEMOGLOBIN: 15.63 G/DL
  LEUKOCYTE COUNT: 10.67 x10E3/uL
  LYMPHOCYTE: 92%
  MEAN CORPUSCULAR HEMOGLOBIN: 24.57 pg
  MEAN CORPUSCULAR HEMOGLOBIN CONCENTRATION: 38.87 G/DL
  MEAN CORPUSCULAR VOLUME: 63.2 fL
  MONOCYTE: 1.33%
  NEUTROPHIL: 6.67%
  NUCLEATED RED BLOOD CELLS: 0.33 /100WBC
  PLATELET COUNT: 1330 x10E3/uL
  ALANINE AMINOTRANSFERASE: 35.67 u/L
  ALBUMIN: 4.67 G/DL
  ALKALINE PHOSPHATASE: 337 u/L
  ASPARTATE AMINOTRANSFERASE: 68.67 u/L
  BLOOD UREA NITROGEN: 21.67 mg/dL
  CARBON DIOXIDE: 29.67 mmol/L
  CHLORIDE: 103 MEQ/L
  CHOLESTEROL: 101 mg/dL
  CREATINE PHOSPHOKINASE: 276 u/L
  CREATININE: 0.21 mg/dL
  GLUCOSE: 155 mg/dL
  LACTATE DEHYDROGENASE: 214.33 u/L
  LIPASE: 10 u/L
  PHOSPHORUS: 12.37 mg/dL
  POTASSIUM: 6.64 MEQ/L
  SODIUM: 148.6 MEQ/L
  TOTAL BILIRUBIN: 0.23 mg/dL
  TOTAL PROTEIN: 6.97 G/DL
  URIC ACID: 2 mg/dL

Reference: ChEMBL document CHEMBL3885881, “DrugMatrix”
